Laboratory results as given in US8846914B2, “Compositions to effect neuronal growth” (Neuralstem, Inc., priority 2003, dated 2014).

Key:
[1] = test system: caspase-3 activation induced by beta amyloid peptide 25-35; assay: Apoptosis induced by beta amyloid peptide 25-35 (caspase-3); type: cell-based, human; details: FIG. 8
Text: FIG. 8 is a bar graph illustrating an example of a neuroprotection profile of the compounds against apoptosis, also known as programmed cell death, induced by beta amyloid peptide 25-35 as a model of Alzheimer's disease. Caspase-3 activation plays a central role in apoptosis and is an indicator of the occurrence of apoptosis if detected. […] Bars represent mean±SD from five wells.
Another assay used to determine the ability of a compound to provide neuroprotection is an apoptosis assay. Apoptosis is measured using the activity of an early matter of the programmed cell death pathway, caspase-3. Following 24 hours or 48 hours of apoptotic-induction in the presence and absence of compound treatment, the media is removed from the wells, and 50 μl cell lysis buffer is added to each well, 50 μl of 2× reaction buffer containing 10 mM DTT is then added to the lysate in each well. The contents of two wells are combined (for example: rows A/H, B/G, C/F, D/E), and 5 μl of substrate is added per well as recommended in the protocol for a caspase-3 fluorometric assay kit (Biovision) known in the art. The plate is incubated at 37° C. for 60 minutes. The contents of each well are then transferred to a fresh plate, and the fluorescence is determined with an […] using a fluorescent plate reader such as the Molecular Devices Gemini Fluorescent Plate Reader. Caspase-3 activity is expressed as μM of cleaved substrate per hour. Substrate concentration in μM is run for each plate to determine activity values for each treatment condition.
FIG. 8 is a bar graph illustrating an example of a neuroprotection profile of the compounds against apoptosis induced by beta amyloid peptide 25-35, part of a larger peptide found in plaques in Alzheimer's brains, as a model of Alzheimer's disease. Caspase-3 activation plays a central role in apoptosis and is an indicator of the occurrence of apoptosis if detected. […] Bars represent mean±SD from five wells.

hippocampal stem cells = assay: Differentiation into mature neurons (BrdU+/MAP-2ab+), three-week treatment; type: cell-based, human; details: three weeks of continuous treatment; two-day BrdU pulse; FIG. 12
Procedure: FIG. 12 is a bar graph illustrating an example of differentiation into mature neurons as a percentage of control in response to a three-week treatment with the test compounds. Mitotic cells were labeled with BrdU. BrdU-positive cells were double-stained with the marker of mature neurons, anti-MAP-2 antibody. Total BrdU-immunostained cells and BrdU+/MAP-2ab+ co-stained cells indicating neurons were counted.
In FIG. 12 the exact number of dividing cells and neurons are determined to confirm that the increase in neurons is due to proliferation followed by differentiation. In FIG. 12, hippocampal stem cells are plated in a 96-well plate. The cells are then treated with one of the agents listed along with a two-day pulse of bromodeoxyuridine which is taken up into dividing cells thereby labeling mitotic cells with BrdU. After three weeks of continuous treatment with the listed agents, the cells are fixed and stained for BrdU immunoreactivity. BrdU-positive cells are double-stained with the marker of mature neurons, anti-MAP-2 to identify cells that have differentiated into mature neurons. The BrdU+/MAP-2ab+ co-stained cells which have differentiated into mature neurons are distinguished from control BrdU-immunostained cells which are proliferating stem cells.

[2] = test system: dentate gyrus of C57B16 adult mice; assay: In vivo neurogenesis, BrdU immunostaining of dentate gyrus; parameters: species or system mouse; details: for Neurogenesis in the dentate gyrus (BrdU-immunopositive cells): 10 mg/kg orally for ten days, healthy adult mice
Procedure: FIG. 9A and FIG. 9B are micrographs illustrating an example of BrdU immunostaining of a mouse dentate gyrus having been administered a vehicle and a compound. Mice were treated daily with various test compounds at 10 mg/kg p.o. (FIG. 9B) or vehicle alone (FIG. 9A) for ten days. The animals were injected daily with BrdU for the first seven days. At the end of the ten-day period, the animals were perfused and their brains sliced for immunostaining with anti-BrdU antibody and analysis.
FIGS. 10A and 10B are bar graphs illustrating an example of quantification of BrdU-immunopositive cells in the in vivo neurogenesis testing the compounds. Mice were treated with the various test compounds for in vivo neurogenesis in two cohorts. The cells from one dentate gyrus of each mouse in each test group were counted and average BrdU values immunoreactivity are shown. The symbols, * and ** indicate immunoreactivity increases of statistical significant the indicated p values. Seven compounds are especially effective in increasing the neurogenesis in the dentate gyrus of the healthy adult mice, the area known to have continued adult neurogenesis.
In one embodiment, fifteen of the compounds from Table I above are administered orally to mice at 10 mg/kg for ten days and co-administered bromodeoxyuridine (BrdU) by intraperitoneal injection for the first […] days. […] For example, in FIGS. 9A and 9B, BrdU immunostainings of hippocampal slices from two mice treated with either vehicle alone or NSI-158 are illustrated. In FIGS. 9A and 9B, the mice are treated daily for ten days with vehicle alone (FIG. 9A) or orally with various test compounds at 10 mg/kg (FIG. 9B). The animals are injected daily with BrdU for the first seven days. […]
Mice were treated with the various test compounds for in vivo neurogenesis in two cohorts as described above. The cells from one dentate gyrus of each mouse in each test group were counted and average BrdU immunoreactivity values are calculated. […]

[3] = test system: Differentiating hippocampal stem cells; assay: Committed neuronal progenitors (Ki-67 / TuJ1 co-staining); type: cell-based, human; details: treated for 10 days; FIG. 14
Procedure: FIG. 14 is a micrograph illustrating an example of production of committed neuronal progenitors by NSI-106. Differentiating hippocampal stem cells were treated with NSI-106 for 10 days, fixed, and stained for Ki-67 protein as well as TuJ1. Ki-67 protein is an endogenous marker of mitosis.
FIG. 14 illustrates committed neuronal progenitor production by NSI-106. Differentiating hippocampal stem cells are treated with NSI-106 for 10 days, fixed, and stained for Ki-67 protein to detect dividing cells as well as TuJ1 to detect cells that have differentiated into neurons, Ki-67 protein is an endogenous marker of mitosis.

| SMILES | Inhibition of apoptosis induced by beta amyloid peptide 25-35 [1] | Proliferation and differentiation into mature neurons (BrdU+/MAP-2ab+ cells) (hippocampal stem cells) | further results |
| --- | --- | --- | --- |
| COc1ccc(CCNc2ncc(C(N)=O)c(NC3CC3)n2)cc1OC [NSI-130] | inhibit apoptosis |  |  |
| NC(=O)c1cnc(NCc2ccc(Cl)cc2)nc1NCC1CCCCC1 [NSI-144] | inhibit apoptosis | induce proliferation and then differentiation into neurons |  |
| O=C(COc1ccccc1)NCc1nc2ccccn2c1NCC1CCCO1 (centres unmarked) [NSI-183] |  | induce proliferation and then differentiation into neurons |  |
| O=C(NCc1nc2ccccn2c1NCC1CCCO1)Oc1ccccc1 (centres unmarked) [NSI-182] | inhibit apoptosis |  |  |
| CC(C)CCNc1ncccc1C(=O)N1CCN(Cc2ccccc2)CC1 [NSI-189] |  |  | Neurogenesis in the dentate gyrus (BrdU-immunopositive cells) [2]: especially effective at promoting neurogenesis |
| CS(=O)(=O)N1CCCCC1C(=O)NCc1ccc(Nc2c(C3CC3)nc3ccccn23)cc1 (centres unmarked) [NSI-127] |  | induce proliferation and then differentiation into neurons |  |
| NC(=O)C1CCCN1C(=O)c1cccnc1NCC1CCCCC1 (centres unmarked) [NSI-158] |  |  | Neurogenesis in the dentate gyrus (BrdU-immunopositive cells) [2]: especially effective at promoting neurogenesis; Dividing cells in the dentate gyrus versus vehicle (BrdU immunostaining) ([2]; 10 mg/kg p.o. daily for ten days, FIG. 9A/9B): far greater dividing cells |
| CCCCNc1c(C2CCN(C(=O)CN(CC(C)C)S(C)(=O)=O)CC2)nc2cnccn12 [NSI-106] |  |  | Ki-67 and TuJ1 co-stained cells [3]: significant number of cells are co-stained |
| CCN(CCNC(=O)c1cccnc1NCCC(C)C)Cc1cccnc1 [NSI-190] |  | induce proliferation and then differentiation into neurons |  |
